Experimental data as given in PubChem BioAssay (NCI).
“And” between values parts separate entries of the source, which are not always exact repeats. Equal entries are not always repeated.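 Protocol summary: plate cells (96-well), add compound at 5 concentrations, incubate 48 h, interpolate endpoints linearly. GI50 = concentration required for 50% inhibition of growth. TGI marks complete inhibition of growth.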

Legend:
Experiment in all cases: growth of human tumour cells (NCI), 48 h
MOLT-4 leukemia = system: MOLT-4 leukemia
SK-MEL-5 melanoma = system: SK-MEL-5 melanoma
KM12 colon = system: KM12 colon
RPMI-8226 leukemia = system: RPMI-8226 leukemia
HOP-62 NSCLC = system: HOP-62 NSCLC
MALME-3M melanoma = system: MALME-3M melanoma
HS 578T breast = system: HS 578T breast
OVCAR-8 ovarian = system: OVCAR-8 ovarian
DU-145 prostate = system: DU-145 prostate
NCI-H23 lung = system: NCI-H23 lung

Compound	GI50 (MOLT-4 leukemia)	TGI (MOLT-4 leukemia)	GI50 (SK-MEL-5 melanoma)	TGI (SK-MEL-5 melanoma)	GI50 (KM12 colon)	TGI (KM12 colon)	GI50 (RPMI-8226 leukemia)	TGI (RPMI-8226 leukemia)	GI50 (HOP-62 NSCLC)	TGI (HOP-62 NSCLC)	GI50 (MALME-3M melanoma)	TGI (MALME-3M melanoma)	GI50 (HS 578T breast)	TGI (HS 578T breast)	GI50 (OVCAR-8 ovarian)	TGI (OVCAR-8 ovarian)	GI50 (DU-145 prostate)	TGI (DU-145 prostate)	GI50 (NCI-H23 lung)	TGI (NCI-H23 lung)
O=c1ncc(-c2ccc(C(F)(F)F)cc2)c(NC2CCCCCC2)[nH]1	17.9 µM	43.1 µM	16.6 µM	30.6 µM	19.9 µM	44.3 µM	15.8 µM	39.6 µM	20.3 µM	36.8 µM	17.2 µM	33.7 µM	17.9 µM	53.9 µM	18.7 µM	40.4 µM	31.6 µM	98.1 µM	29.4 µM	90.9 µM
Cc1cc(Cl)ccc1Nc1sc(C(=O)c2cc3cc(Cl)ccc3o2)c(N)c1C#N		> 100 µM		> 100 µM		> 100 µM		> 62.4 µM		> 37.6 µM		> 100 µM		> 100 µM		> 87.2 µM		> 100 µM		35.5 µM
CN1CCN(C(=O)c2ccc(NC(=O)Nc3ccc(N(C)c4ccnc(Nc5ccc(CS(C)(=O)=O)cc5)n4)cc3)cc2)CC1	9.25 µM	> 25 µM	12.4 µM	> 25 µM	7.33 µM	> 25 µM	8.85 µM	> 25 µM	7.61 µM	> 25 µM	> 15 µM	> 25 µM	4.62 µM	> 22.1 µM	7.22 µM	> 24 µM	8.78 µM	> 25 µM	19 µM	> 25 µM
Cc1cc(N(CCOS(C)(=O)=O)CCOS(C)(=O)=O)ccc1C=Nc1ccc(-c2csc(-c3ccccc3)n2)c(Cl)c1		38.7 µM		16.2 µM		27.2 µM		> 71 µM		29.3 µM		25 µM		49.8 µM		> 84.2 µM		35.6 µM		29 µM
CS(=O)(=O)CCNCc1ccc(-c2ccc3ncnc(Nc4ccc(OCc5ccccc5)c(C(F)(F)F)c4)c3c2)o1	5.77 µM	17.9 µM	3.55 µM	6.87 µM	5.48 µM	11.3 µM	7.37 µM	18.2 µM	6.16 µM	15.8 µM	4.57 µM	9.53 µM	4.16 µM	12.2 µM	8.39 µM	> 25 µM	10.3 µM	> 25 µM	6.37 µM	> 19.4 µM
CCCCCCCCCCCCCCCCC1=CC(=O)C=C(OC)C1=O		> 100 µM		> 100 µM		> 100 µM		> 100 µM		> 100 µM		> 100 µM		> 100 µM		> 100 µM		> 100 µM		> 100 µM
C=C(C)C(=O)NC(N)=NC#N	21.5 µM and 46.7 µM	52.2 µM and 255 µM	171 µM	310 µM	147 µM	286 µM	24.7 µM	44.9 µM and 120 µM	206 µM	362 µM	80.8 µM	63.2 µM and 214 µM		797 µM	119 µM	> 90 µM and 287 µM	145 µM	291 µM	147 µM	301 µM
COc1ccc(-c2coc3ncnc(N)c23)cc1	> 25 µM	> 25 µM	> 25 µM	> 25 µM	> 25 µM	> 25 µM	> 25 µM	> 25 µM	> 25 µM	> 25 µM	> 25 µM	> 25 µM	> 25 µM	> 25 µM	> 25 µM	> 25 µM	> 25 µM	> 25 µM	> 25 µM	> 25 µM
CCC1CCc2nc3sc(C(=O)Nc4ccccc4F)c(N)c3cc2C1 (stereo not drawn)	0.471 µM	> 100 µM	0.656 µM	> 100 µM	0.643 µM	> 100 µM	0.94 µM	> 100 µM	> 100 µM	> 100 µM	3.55 µM	> 100 µM	2.13 µM	> 100 µM	> 100 µM	> 100 µM	2.82 µM	> 100 µM	> 100 µM	> 100 µM
NC1=NC(=O)N2CC12 (stereo not drawn)	53.3 µM	> 100 µM and 185 µM	638 µM	> 100 µM and 1450 µM	436 µM	> 100 µM and 1070 µM		> 100 µM and 22 µM and 218 µM	570 µM	> 100 µM and 1250 µM	57.8 µM and 79.7 µM	> 100 µM and 202 µM	316 µM	1720 µM	141 µM	> 100 µM and 5000 µM	240 µM	851 µM	737 µM	> 100 µM and 2640 µM
